How the values were obtained:
Assay in all cases: Rescue concentration, modified checkerboard MIC adjuvant assay
Assay type in all cases: cell-based
[1] = test system: Stenotrophomonas maltophilia MDR 7785; conditions: S. maltophilia MDR 7785
Method in brief: (§1)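 Visual growth read after 24 h at 35° C. under aerobic conditions defines rescue concentration as the lowest compound concentration restoring antibiotic susceptibility at breakpoint (99.99% growth reduction). Antibiotic held fixed at CLSI susceptible breakpoint; compound serially diluted twofold; ca-MHB, 10^6 CFU/ml.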

[2] = test system: Enterococcus faecalis ATCC 51299; conditions: E. faecalis ATCC 51299
Method in brief: as §1

[3] = test system: Acinetobacter baumannii clinical isolate 9978; conditions: A. baumannii clinical isolate 9978
Method in brief: as §1

[4] = test system: Pseudomonas aeruginosa MDR 5805; conditions: P. aeruginosa MDR 5805
Method in brief: as §1

[5] = test system: Klebsiella pneumoniae ATCC BAA-2814; conditions: K. pneumoniae ATCC BAA-2814
Method in brief: as §1

[6] = test system: Staphylococcus aureus ATCC BAA-2312; conditions: S. aureus ATCC BAA-2312
Method in brief: as §1

[7] = test system: Escherichia coli ATCC 35150; conditions: E. coli ATCC 35150
Method in brief: as §1

[8] = test system: Klebsiella pneumoniae ATCC 49472; conditions: K. pneumoniae ATCC 49472
Method in brief: as §1

[9] = Cef at susceptible breakpoint 8 μg mL^−1
[10] = Ceph at susceptible breakpoint 8 μg mL^−1
[11] = Chl at susceptible breakpoint 8 μg mL^−1
[12] = Gen at susceptible breakpoint 4 μg mL^−1
[13] = Imi at susceptible breakpoint 2 μg mL^−1
[14] = Mero at susceptible breakpoint 2 μg mL^−1
[15] = Amp at susceptible breakpoint 8 μg mL^−1
[16] = Dox at susceptible breakpoint 4 μg mL^−1
[17] = Tri at susceptible breakpoint 8 μg mL^−1
[18] = Amox at susceptible breakpoint 8 μg mL^−1
[19] = Col at susceptible breakpoint 2 μg mL^−1
[20] = Pol B at susceptible breakpoint 2 μg mL^−1
[21] = Col at susceptible breakpoint 8 μg mL^−1
[22] = Imi at susceptible breakpoint 1 μg mL^−1

Oc1ccc(C(c2c[nH]c3cnccc23)c2c[nH]c3cnccc23)cc1 [SP-6azaBIM 136, 4-(bis(1H-pyrrolo[2,3-c]pyridin-3-yl)methyl)phenol]
Rescue concentration, Cef (8) [1, 9]: 32 µg/mL
Rescue concentration, Ceph (8) [1, 10]: 64 µg/mL
Rescue concentration, Chl (8) [1, 11]: 16 µg/mL
Rescue concentration, Cip (2) ([1]; Cip at susceptible breakpoint 2 μg mL^−1): 16 µg/mL
Rescue concentration, Gen (4) [1, 12]: 64 µg/mL
Rescue concentration, Imi (2) [1, 13]: 32 µg/mL
Rescue concentration, Mero (2) [1, 14]: 32 µg/mL
Rescue concentration, Tri (2) ([1]; Tri at susceptible breakpoint 2 μg mL^−1): >128 µg/mL
Rescue concentration, Amp (8) [2, 15]: >128 µg/mL
Rescue concentration, Chl (8) [2, 11]: >128 µg/mL
Rescue concentration, Dox (4) [2, 16]: >128 µg/mL
Rescue concentration, Ery (0.5) ([2]; Ery at susceptible breakpoint 0.5 μg mL^−1): >128 µg/mL
Rescue concentration, Tri (8) [2, 17]: >128 µg/mL
Rescue concentration, Van (4) ([2]; Van at susceptible breakpoint 4 μg mL^−1): >128 µg/mL
Rescue concentration, Amox (8) [3, 18]: 16 µg/mL
Rescue concentration, Cef (8) [3, 9]: 32 µg/mL
Rescue concentration, Col (2) [3, 19]: 64 µg/mL
Rescue concentration, Gen (4) [3, 12]: 16 µg/mL
Rescue concentration, Imi (2) [3, 13]: 2 µg/mL
Rescue concentration, Mero (2) [3, 14]: 32 µg/mL
Rescue concentration, Pol B (2) [3, 20]: 64 µg/mL
Rescue concentration, Amox (8) [4, 18]: 2 µg/mL
Rescue concentration, Col (2) [4, 19]: 4 µg/mL
Rescue concentration, Gen (4) [4, 12]: 4 µg/mL
Rescue concentration, Imi (2) [4, 13]: 2 µg/mL
Rescue concentration, Mero (2) [4, 14]: 2 µg/mL
Rescue concentration, Pol B (2) [4, 20]: 4 µg/mL
Rescue concentration, Amox (8) [5, 18]: 16 µg/mL
Rescue concentration, Amp (8) [5, 15]: 32 µg/mL
Rescue concentration, Aze (4) ([5]; Aze at susceptible breakpoint 4 μg mL^−1): 4 µg/mL
Rescue concentration, Azi (16) ([5]; Azi at susceptible breakpoint 16 μg mL^−1): 16 µg/mL
Rescue concentration, Cef (16) ([5]; Cef at susceptible breakpoint 16 μg mL^−1): 8 µg/mL
Rescue concentration, Ceph (8) [5, 10]: 16 µg/mL
Rescue concentration, Chl (8) [5, 11]: 32 µg/mL
Rescue concentration, Col (8) [5, 21]: 16 µg/mL
Rescue concentration, Dox (4) [5, 16]: 4 µg/mL
Rescue concentration, Gen (4) [5, 12]: 4 µg/mL
Rescue concentration, Imi (1) [5, 22]: 4 µg/mL
Rescue concentration, Tet (4) ([5]; Tet at susceptible breakpoint 4 μg mL^−1): 4 µg/mL
Rescue concentration, Azi (2) ([6]; Azi at susceptible breakpoint 2 μg mL^−1): >128 µg/mL
Rescue concentration, Gen (4) [6, 12]: >128 µg/mL
Rescue concentration, Pen (0.12) ([6]; Pen at susceptible breakpoint 0.12 μg mL^−1): >128 µg/mL
Rescue concentration, Tri (8) [6, 17]: >128 µg/mL
Rescue concentration, Van (2) ([6]; Van at susceptible breakpoint 2 μg mL^−1): 128 µg/mL
Rescue concentration, Amp (8) [7, 15]: 8 µg/mL
Rescue concentration, Cip (0.25) ([7]; Cip at susceptible breakpoint 0.25 μg mL^−1): 16 µg/mL
Rescue concentration, Dox (4) [7, 16]: 4 µg/mL
Rescue concentration, Imi (1) [7, 22]: 4 µg/mL
Rescue concentration, Amox (8) [8, 18]: 32 µg/mL
Rescue concentration, Amp (8) [8, 15]: 64 µg/mL
Rescue concentration, Col (8) [8, 21]: 32 µg/mL
Rescue concentration, Imi (1) [8, 22]: 16 µg/mL
Rescue concentration, Mero (1) ([8]; Mero at susceptible breakpoint 1 μg mL^−1): 32 µg/mL
Rescue concentration, Pol B (8) ([8]; Pol B at susceptible breakpoint 8 μg mL^−1): 16 µg/mL
